Like-named read-outs stand apart in the source and are kept apart here. Where a SMILES comes first, the peptide text is derived from it.
Legend:
[1] = tested on: Cx43 hemichannel; settings: glioma cells; read-out: IC50 (half maximal inhibitory concentration) for the inhibition of ATP release; cited from earlier work
[2] = molecular target: gap junction (Homo sapiens, UniProt P17302); settings: cited from earlier work
[3] = molecular target: Panx1 channel (Homo sapiens, UniProt Q96RD7); settings: cited from earlier work
[4] = molecular target: gap junctions (Homo sapiens, UniProt P08034); set-up: dose or concentration left out as unconfirmed; settings: cited from earlier work
[5] = Pharmacokinetics of tonabersat after single and repeat oral dosing, 40 and 80 mg once daily; format: in vivo, human; settings: for half-life: human, plasma
Source text: In some embodiments, a connexin hemichannel modulator (e.g., a connexin 43 hemichannel modulator) is provided in an amount to achieve and/or to maintain a steady state amount over a desired period of time, including some or part of a dosing regimen for use in addressing one or more signs or symptom of a post-acute infection syndrome, disorder, disease or condition. In some embodiments, the connexin hemichannel modulator (e.g., a connexin 43 hemichannel modulator) is a compound according to Formula I. In some embodiments, the connexin hemichannel modulator (e.g., a connexin 43 hemichannel modulator) is a compound according to Formula II.

[6] = Pharmacokinetics of tonabersat after single and multiple dosing, 240 to 400 mg, fasted and fed (MAD and DDI parts); format: in vivo, human; settings: for AUC(0-inf) / half-life / Tmax: human, in vivo, oral; for AUC(0-inf): 320 mg; for half-life: read-out: geometric mean t1/2; for Tmax: read-out: median tmax
Source text: In some embodiments, a connexin hemichannel modulator (e.g., a connexin 43 hemichannel modulator) is provided in an amount to achieve and/or to maintain a steady state amount over a desired period of time, including some or part of a dosing regimen for use in addressing one or more signs or symptom of a post-acute infection syndrome, disorder, disease or condition. In some embodiments, the connexin hemichannel modulator (e.g., a connexin 43 hemichannel modulator) is a compound according to Formula I. In some embodiments, the connexin hemichannel modulator (e.g., a connexin 43 hemichannel modulator) is a compound according to Formula II. […] There was no evidence of time- or dose-related changes in systemic exposure of tonabersat. For a drug to show no change in its pharmacokinetic behavior on chronic dosing, the steady-state accumulation ratio (Rs) should equal unity. […] After both single and multiple dosing, Cmax and AUC increased with increasing dose in a dose-proportional manner across the dose range studied. […] Therefore, total exposure (extent of absorption) was not affected by food administration, whereas the rate of drug absorption was increased in the presence of food. […] The half-life was not affected by fed conditions.

[7] = molecular target: NLRP3 inflammasome (Homo sapiens, UniProt Q96P20); settings: cited from earlier work
[8] = tested on: NLRC4 inflammasome; settings: cited from earlier work
[9] = tested on: AIM2 inflammasome; settings: cited from earlier work

Sequence of gap junction (P17302 whole entry): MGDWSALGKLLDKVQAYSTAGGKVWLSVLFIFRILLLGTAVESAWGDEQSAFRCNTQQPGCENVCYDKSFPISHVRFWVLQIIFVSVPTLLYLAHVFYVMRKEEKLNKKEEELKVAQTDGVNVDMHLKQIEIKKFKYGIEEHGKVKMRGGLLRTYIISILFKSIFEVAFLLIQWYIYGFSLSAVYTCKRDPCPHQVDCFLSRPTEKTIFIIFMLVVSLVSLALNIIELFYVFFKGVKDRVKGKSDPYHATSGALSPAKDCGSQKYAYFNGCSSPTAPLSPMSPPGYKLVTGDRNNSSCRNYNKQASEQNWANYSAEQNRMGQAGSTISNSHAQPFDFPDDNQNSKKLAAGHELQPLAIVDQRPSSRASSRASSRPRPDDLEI
Sequence of gap junctions (P08034 whole entry): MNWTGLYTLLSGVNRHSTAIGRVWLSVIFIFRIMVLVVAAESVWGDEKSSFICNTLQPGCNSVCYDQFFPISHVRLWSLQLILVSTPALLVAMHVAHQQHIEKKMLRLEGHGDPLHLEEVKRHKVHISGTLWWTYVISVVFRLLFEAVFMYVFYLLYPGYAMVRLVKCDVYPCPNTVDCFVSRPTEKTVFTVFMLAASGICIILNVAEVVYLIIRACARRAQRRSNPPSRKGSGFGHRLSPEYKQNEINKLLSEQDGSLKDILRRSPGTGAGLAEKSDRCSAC
Sequence of Panx1 channel (Q96RD7 whole entry): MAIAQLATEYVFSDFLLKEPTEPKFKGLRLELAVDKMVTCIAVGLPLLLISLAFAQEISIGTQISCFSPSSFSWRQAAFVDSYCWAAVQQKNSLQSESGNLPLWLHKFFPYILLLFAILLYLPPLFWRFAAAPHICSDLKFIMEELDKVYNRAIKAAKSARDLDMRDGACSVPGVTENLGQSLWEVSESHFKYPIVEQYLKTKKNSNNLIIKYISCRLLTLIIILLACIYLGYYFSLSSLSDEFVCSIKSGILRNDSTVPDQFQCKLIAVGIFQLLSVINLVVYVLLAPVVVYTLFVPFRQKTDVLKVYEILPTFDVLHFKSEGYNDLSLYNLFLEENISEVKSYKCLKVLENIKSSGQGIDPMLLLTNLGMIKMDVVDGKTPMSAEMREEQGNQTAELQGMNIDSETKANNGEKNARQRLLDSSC
Sequence of NLRP3 inflammasome (Q96P20 whole entry): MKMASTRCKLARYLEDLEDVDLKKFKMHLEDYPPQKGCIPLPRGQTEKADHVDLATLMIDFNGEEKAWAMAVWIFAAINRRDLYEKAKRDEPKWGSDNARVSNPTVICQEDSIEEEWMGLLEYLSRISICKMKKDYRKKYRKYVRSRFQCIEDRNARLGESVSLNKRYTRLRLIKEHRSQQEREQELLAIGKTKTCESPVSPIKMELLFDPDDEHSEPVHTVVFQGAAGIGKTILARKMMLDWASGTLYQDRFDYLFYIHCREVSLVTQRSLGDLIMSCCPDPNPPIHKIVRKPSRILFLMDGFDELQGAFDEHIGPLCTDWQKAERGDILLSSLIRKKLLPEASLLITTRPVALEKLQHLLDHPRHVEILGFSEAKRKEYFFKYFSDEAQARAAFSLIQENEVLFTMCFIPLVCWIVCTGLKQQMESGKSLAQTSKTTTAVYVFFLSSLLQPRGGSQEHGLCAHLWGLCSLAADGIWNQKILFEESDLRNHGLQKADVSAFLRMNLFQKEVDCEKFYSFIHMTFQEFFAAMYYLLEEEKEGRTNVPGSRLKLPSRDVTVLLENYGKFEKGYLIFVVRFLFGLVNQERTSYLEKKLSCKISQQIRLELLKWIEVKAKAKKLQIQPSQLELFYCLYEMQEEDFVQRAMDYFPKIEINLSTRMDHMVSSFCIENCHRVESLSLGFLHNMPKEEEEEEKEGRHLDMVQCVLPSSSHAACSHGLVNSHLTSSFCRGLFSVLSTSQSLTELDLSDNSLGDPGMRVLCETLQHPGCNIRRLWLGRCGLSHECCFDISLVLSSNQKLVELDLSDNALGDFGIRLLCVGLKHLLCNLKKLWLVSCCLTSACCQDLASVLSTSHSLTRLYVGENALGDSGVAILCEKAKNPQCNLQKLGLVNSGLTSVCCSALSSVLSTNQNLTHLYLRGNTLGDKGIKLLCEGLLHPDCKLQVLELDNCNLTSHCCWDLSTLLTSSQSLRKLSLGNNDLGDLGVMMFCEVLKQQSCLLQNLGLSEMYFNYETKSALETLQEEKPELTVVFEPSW

Compound: CC[C@H](C)[C@H](NC(=O)[C@H](CCC(=O)O)NC(=O)[C@@H](NC(=O)[C@H](CCC(N)=O)NC(=O)[C@@H](N)CCCCN)[C@@H](C)CC)C(=O)N[C@@H](CCCCN)C(=O)N[C@@H](CCCCN)C(=O)N[C@@H](Cc1ccccc1)C(=O)N[C@@H](CCCCN)C(=O)O [^43Gap19] (H-KQIEIKKFK-OH; N-terminus and C-terminus assumed)
- IC50 [1]: 47 µM
- effect on gap junction activity (selectivity) [2]: does not affect
- effect on Panx1 channel activity (selectivity) [3]: does not affect

Compound: CC[C@H](C)[C@H](NC(=O)[C@H](CCC(=O)O)NC(=O)[C@@H](NC(=O)[C@H](CCC(N)=O)NC(=O)[C@H](CCCCN)NC(=O)[C@H](CCCNC(=N)N)NC(=O)[C@H](CCCNC(=N)N)NC(=O)[C@H](CCCNC(=N)N)NC(=O)[C@H](CCC(N)=O)NC(=O)[C@H](CCCNC(=N)N)NC(=O)[C@H](CCCNC(=N)N)NC(=O)[C@H](CCCCN)NC(=O)[C@H](CCCCN)NC(=O)[C@H](CCCNC(=N)N)NC(=O)CNC(=O)[C@@H](N)Cc1ccc(O)cc1)[C@@H](C)CC)C(=O)N[C@@H](CCCCN)C(=O)N[C@@H](CCCCN)C(=O)N[C@@H](Cc1ccccc1)C(=O)N[C@@H](CCCCN)C(=O)O [TAT-^43Gap19] (H-YGRKKRRQRRRKQIEIKKFK-OH; N-terminus and C-terminus assumed)
- IC50 [1]: 7 µM

Compound: GHGDPLHLEEVKC [^32Gap24]
- effect on gap junctions [4]: without affecting

Compound: CC(=O)c1ccc2c(c1)[C@H](NC(=O)c1ccc(F)c(Cl)c1)[C@H](O)C(C)(C)O2 [tonabersat, N-[(3S,4S)-6-acetyl-3-hydroxy-2,2-dimethyl-3,4-dihydrochromen-4-yl]-3-chloro-4-fluorobenzamide]
- dose proportionality of pharmacokinetics (dose-normalized Cmax and AUC(0-t)) ([5]; between 40 and 80 mg once daily, single or multiple doses): approximately dose proportional
- half-life ([5]; oral, read-out: elimination half-life): 24 to 36 h
- half-life ([5]; oral, read-out: mean half-life (converted)): ~25 h
- half-life ([5]; po, single and repeat oral dosing, read-out: terminal elimination phase T1/2): 24 to 33 h
- time tonabersat generally quantifiable in the plasma post-dose ([5]; single and repeat oral dosing): at least 96 hours
- time- or dose-related changes in systemic exposure ([5]; single and repeat oral dosing): no evidence
- half-life, effect of fed conditions ([6]; fed vs fasted): not affected
- rate of drug absorption in the presence of food ([6]; fed vs fasted): increased
- total exposure (extent of absorption), effect of food administration ([6]; fed vs fasted): not affected
- AUC(0-inf) ([6]; single dose 320 mg fasted): 285 µg·h/mL
- AUC(0-inf) ([6]; single dose 320 mg fed): 296 µg·h/mL
- half-life ([6]; after multiple dosing, Day 14): 37.5 to 41.6 h
- half-life ([6]; after single dosing): 28.9 to 37.8 h
- Tmax ([6]; single dose 240 mg, fasted): 16 h
- Tmax ([6]; single dose 320 mg, fasted): 10.5 h
- Tmax ([6]; single or multiple dosing 240 mg to 400 mg, fed (light, medium or fed)): 3 to 4 h
- accumulation of Cmax and AUC ([6]; multiple dosing 13 to 14 consecutive days, Days 13 or 14 compared to Day 1): approximately 3 fold
- Cmax and AUC increase with increasing dose ([6]; single and multiple dosing, across the dose range studied): dose-proportional

Compound: CC(C)C[C@H](NC(=O)[C@H](Cc1ccccc1)NC(=O)c1c(F)cccc1F)B(O)O [NIC-102, ((R)-1-((S)-2-(2,6-difluorobenzamido)-3-phenylpropanamido)-3-methylbutyl)boronic acid]
- effect on NLRP3 inflammasome activation [7]: specifically prevents
- effect on NLRC4 inflammasome [8]: no effect
- effect on AIM2 inflammasome [9]: no effect

Reference: patent publication US20250352508A1, “PREVENTION AND TREATMENT OF POST-ACUTE INFECTION SYNDROMES” (InflammX Therapeutics, Inc., priority 2024, published 2025)
